In assay [1] the test system is SGK1 protein in INS-1 cells. In words: Western blotting of SGK1 protein in INS-1 cells. In kind it is cell-based, rat. On the technique in general: Immunoblotting shows a protein as a band on a membrane.
Procedure: INS-1 cells were treated with 100 nM dexamethasone or vehicle (DMSO) in culture for the indicated periods of time.
Plots were incubated with antibodies against SGK1 (New England Biolabs, Beverly, Mass., USA). Bound antibody was visualized using a second antibody coupled to horse radish peroxidase.
Thereafter, culture medium was removed and cells were lysed in a solution containing 300 mM NaCl, 20 mM Tris HCl, pH 7.4, 1% (v/v) Triton X-100, 1% Sodiumdeoxycholate, 0.1% SDS, 2.5 mM EDTA, 10 μg/ml Pepstatin A, 10 μg/ml Aprotinin and 0.1 mM PMSF. Total cellular protein, 50 μg, quantified by Coomassie Blue G staining (Bradford dye assay, Biorad Laboratories GmbH, Munich, Germany) was subjected to SDS-PAGE (1%), and plotted onto a nitrocellulose membrane (Schleicher and Schuell, Dassel, Germany). Plots were incubated with antibodies against SGK1 (New England Biolabs, Beverly, Mass., USA). Bound antibody was visualized using a second antibody coupled to horse radish peroxidase.
Assay [2] deals with nuclear glucocorticoid receptor (Mus musculus, UniProt P06537). Particulars: Lambillotte et al., 1997; cited from earlier work.
For assay [3], the system named is SGK1 transcript levels in INS-1 cells. Nature of the assay: Real time PCR of SGK1 mRNA in INS-1 cells. In kind it is cell-based, rat. As to conditions: with 100 nM dexamethasone.
For assay [4], the system named is INS-1 cells. In words: Glucose-induced insulin secretion of INS-1 cells. As to conditions: INS-1 cells pretreated with 100 nM dexamethasone. In kind it is cell-based, rat. As to the method:
Prior to the experiment INS-1 cells were treated in culture with dexamethasone, 100 nM, for 4 h. Cells were washed twice and preincubated in HEPES buffered salt solution containing (in mmol/l): 140 NaCl, 5.6 KCl, 1.2 MgCl2, 2.6 CaCl2, 0.5 glucose, 10 HEPES and 5 g/l bovine serum albumin, pH 7.4 at 37° C. Thereafter cells were incubated for 30 min at 37° C. in fresh solution containing the test substances at the appropriate concentrations. Insulin was measured by radioimmunoassay using rat insulin antiserum (Linco, Biotrend Chemikalien GmbH, Cologne, Germany), I^125-insulin (CIS Diagnostik GmbH, Dreieich, Germany) and rat insulin (Novo Nordisk, Mainz, Germany) as standard or by an Insulin Elisa kit (Mercodia, Uppsala, Sweden).
INS-1 cells (kindly provided by CB Wollheim, University of Geneva, Switzerland) derived from a rat insulinoma were cultured in HEPES-buffered RPMI 1640 supplemented with 10% fetal calf serum (Biochrom, Berlin, Germany), 1 mmol/l HEPES, 1 mmol/l Na pyruvate, 10 μmol/l β-mercaptoethanol (Sigma, Munich, Germany) and antibiotics as described elsewhere (Abel et al., 1996; Asfari et al., 1992). Cells were seeded at a cell density of 2.0-2.5 10^5 cells/ml in 24-well culture plates and cultured for 2 days prior to the experiment. Cells were washed twice with HEPES buffered salt solution containing (in mmol/l): 140 NaCl, 5.6 KCl, 1.2 MgCl2, 2.6 CaCl2, 0.5 glucose, 10 HEPES and 5 g/l bovine serum albumin, pH 7.4. and preincubated for 30 min at 37° C. […] Incubations were stopped on ice, medium removed and frozen at −20° C. until insulin released into the supernatant was measured by radioimmunoassay using rat insulin antiserum (Linco, Biotrend Chemikalien GmbH, Cologne, Germany), I^125-insulin (CIS Diagnostik GmbH, Dreieich, Germany) and rat insulin (Novo Nordisk, Mainz, Germany) as standard or an insulin Elisa kit (Mercodia, Uppsala, Sweden). Insulin content was measured after extraction with acid ethanol (1.5 (v/v) % HCl/75% ethanol) over night at 4° C.

Assay [5] deals with Kv1.5 mRNA in INS cells. Nature of the assay: Real time PCR of Kv1.5 mRNA in INS-1 cells. In kind it is cell-based, rat. Particulars: 100 nM dexamethasone, within 4 hours. For orientation: In qPCR the cycle at which signal appears reflects the starting amount.
Assay [6] concerns voltage gated outward current (Kv channels) in INS-1 cells. Nature of the assay: Patch clamp measurement of whole cell outward current in INS-1 cells. In kind it is cell-based, rat. Particulars: for 4-AP sensitive current: INS-1 cells after 4 hours 100 nM dexamethasone; for inhibition of outward current: untreated INS-1 cells. As to the method: Cells were treated prior to the experiment with 100 nm dexamethasone for 4 h. (2A) whole cell current was induced by 200 ms voltage pulses increasing by 10 mv steps from −70 mv to +50 mv. (2B) Sensitivity to 4-ap (0.1 and 1 mm) and tea (1 and 10 mm) was tested in cells before (black columns) and after dexamethasone treatment (white columns). Voltage pulses of 200 ms duration from −70 to 50 mv were applied. Shown are means±sem for the indicated number of experiments. * denotes significance (p<0.05) to current in control, non treated cells at the same inhibitor concentration. Ins-1 cells were cultured as described before (Abel et al., 1996; Asfari et al., 1992). The external patch clamp solution contained (in mmol/l): 140 NaCl, 5.6 KCl, 1.2 MgCl2, 2.6 CaCl2, 0.5 glucose and 10 HEPES, PH 7.4. The internal solution contained (in mmol/l): 30 KCL, 95 K^+-gluconate, 1 MgCl2, 1.2 NaH2PO4, 4.8 Na2HPO4, 5 Na2ATP, 1 Na3GTP, 5 mmol/l EGTA, PH 7.2. An Epc9 Patch Clamp Amplifier (Heka Electronic, Lambrecht, Germany) Was Used For Current Measurements.
INS-1 cells were cultured for 2-4 days on glass cover slips coated with poly-L-ornithine (10 mg/l Sigma, Munich, Germany) at appropriate cell densities (1.2×10^6 cells/ml). The cover slips were mounted in a bath chamber on the stage of an inverted microscope (IM, Zeiss, Jena, Germany). The cells were kept at room temperature or at 34° C. as indicated for each experiment and superfused with a solution containing (in mmol/l): 140 NaCl, 5.6 KCl, 1.2 MgCl2, 2.6 CaCl2, 0.5 glucose and 10 HEPES, pH 7.4. The patch clamp pipettes (Clark-Medical, Reading, Great Britain) with a resistance of 4-6 MΩ were pulled using a DMZ-universal puller (Zeitz, Augsburg, Germany). They were filled with an internal solution containing (in mmol/l): 30 KCl, 95 K^+-gluconate, 1 MgCl2, 1.2 NaH2PO4, 4.8 Na2HPO4, 5 Na2ATP, 1 Na3GTP, 5 mmol/l EGTA, pH 7.2. An EPC9 patch clamp amplifier (Heka Electronic, Lambrecht, Germany) was used for current measurements. Only stable current measurements, i.e. when currents reached at least 90% of control current after removal of the respective inhibitory drug, were used for analysis.
For orientation: Patch clamp records ionic current or voltage across a cell membrane.

Sequence of nuclear glucocorticoid receptor (P06537 whole entry): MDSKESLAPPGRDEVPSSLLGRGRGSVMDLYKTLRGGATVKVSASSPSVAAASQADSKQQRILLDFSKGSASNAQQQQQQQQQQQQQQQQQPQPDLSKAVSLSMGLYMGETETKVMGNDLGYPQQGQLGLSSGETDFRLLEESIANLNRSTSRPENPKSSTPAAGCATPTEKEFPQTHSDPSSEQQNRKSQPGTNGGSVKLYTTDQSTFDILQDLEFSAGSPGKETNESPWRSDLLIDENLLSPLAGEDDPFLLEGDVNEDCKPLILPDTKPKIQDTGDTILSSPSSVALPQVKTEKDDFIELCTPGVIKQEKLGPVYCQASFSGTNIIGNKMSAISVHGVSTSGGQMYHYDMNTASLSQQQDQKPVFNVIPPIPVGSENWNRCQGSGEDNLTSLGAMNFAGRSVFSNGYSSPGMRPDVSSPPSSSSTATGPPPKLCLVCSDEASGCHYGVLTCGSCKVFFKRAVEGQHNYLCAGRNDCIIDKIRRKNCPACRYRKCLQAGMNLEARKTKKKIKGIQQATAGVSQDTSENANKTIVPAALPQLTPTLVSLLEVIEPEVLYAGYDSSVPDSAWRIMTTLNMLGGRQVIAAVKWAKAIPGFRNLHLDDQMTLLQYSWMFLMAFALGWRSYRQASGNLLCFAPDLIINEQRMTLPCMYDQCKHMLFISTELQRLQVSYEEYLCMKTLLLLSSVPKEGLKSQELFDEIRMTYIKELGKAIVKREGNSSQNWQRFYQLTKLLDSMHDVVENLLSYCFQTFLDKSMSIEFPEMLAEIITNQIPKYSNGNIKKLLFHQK

Turning to `CC#C[C@]1(O)CC[C@H]2[C@@H]3CCC4=CC(=O)CCC4=C3[C@@H](c3ccc(N(C)C)cc3)C[C@@]21C` [RU486, mifepristone], the “effect on dexamethasone-induced SGK1 expression” value in assay [1] (RU486 at 1 μmol/l, with 100 nM dexamethasone) was “completely inhibited”. Besides, the “effect on dexamethasone-induced increase in SGK1 protein abundance” value in assay [1] (with 100 nM dexamethasone) was “fully reversed”. The “effect on dexamethasone-induced inhibition of insulin secretion” value in assay [2] was “completely abolished”. In addition, in assay [3], the “effect on dexamethasone-induced increase of SGK1 mRNA transcript levels” value is on record as “completely abrogated”.
One may read the inhibition as the share of the control response that was lost under treatment. Consider `C[C@@H]1C[C@H]2[C@@H]3CCC4=CC(=O)C=C[C@]4(C)[C@@]3(F)[C@@H](O)C[C@]2(C)[C@@]1(O)C(=O)CO` [dexamethasone], for which the “time until SGK1 protein / expression appears” value in assay [1] (100 nM dexamethasone) was not above 2 h. Moreover, the inhibition at 0.1 µM in assay [4] (Rattus norvegicus, INS1) stood at 62%. Further, the “increase of abundance of Kv1.5 mRNA (factor)” value in assay [5] is reported as “approx. 10”.
On to `CC[N+](CC)(CC)CC` [TEA], for which, in assay [4], the “effect on dexamethasone-induced inhibition of insulin secretion” value was “reversed”.
Regarding `Nc1ccncc1` [4-AP], in assay [6] (0.1 mM 4-AP), the 4-AP sensitive current is listed as 28% and the “inhibition of outward current” value worked out at 10%. Further, in assay [6] (1 mM 4-AP), the 4-AP sensitive current is 40% and the “inhibition of outward current” value was determined as 28%. Moreover, the “effect on dexamethasone-induced inhibition of insulin secretion” value in assay [4] is listed as “reversed”.

These data come from patent publication US20070191325A1, “Methods for altering insulin secretion” (priority 2004, published 2007).
